Assay results taken from patent US20160317418A1, “METHOD OF IMPROVING THE APPEARANCE OF SKIN AND COMPOSITIONS THEREFOR” (The Procter & Gamble Company, priority 2015, published 2016).
“Also recorded” adds a separate entry of the source.

How the values were obtained:
[1] = tested on: HMGB1 protein released from keratinocytes; assay: In Vitro UV Stress Test: HMGB1 released from UVB-exposed keratinocytes (ELISA); assay type: cell-based, human; conditions: for HMGB1 Released: 0.001 w/v % after 15 mJ/cm^2 UVB, 24 hours, UV untreated 19.4, no UV 10.5; for effect on amount of HMGB1 protein released by keratinocytes exposed to UVB (in words): compared to the untreated UVB exposed cells
Protocol: This example compares the ability of nicotinamide riboside and niacinamide to reduce the amount of HMGB1 protein released from keratinocytes subjected to stress from ultraviolet (“UV”) radiation. Human neonatal keratinocytes (available from Thermo) were placed in each well of four 12-well plates. Each well also contained 2 ml of EPILIFE brand keratinocyte medium. The plates were incubated at 37° C. in a CO2 incubator until cell confluency reached 70%. At this point, the cells, except for the negative control, were exposed to 15 mJ/cm^2 UVB (i.e., UV radiation with a wavelength of from 315-280 nm) in a BIO-SUN brand UV irradiating system (available from Vilber Lourmat, France). After UVB exposure, the keratinocyte medium in each well was replaced with an appropriate medium (i.e., niacinamide medium, nicotinamide riboside medium or a control medium) to produce the test plates. The test plates were incubated for 24 hours at 37° C. in a CO2 incubator, after which the medium in each cell was removed and the HMGB1 level measured using a conventional HMGB1 ELISA kit (REF # ST51011, available from IBL International, Canada) according to the manufacturer's instructions. The test media were made by adding either niacinamide or nicotinamide riboside to EPILIFE brand keratinocyte medium to produce a 0.001 w/v % solution. The control medium was unmodified keratinocyte medium.

[2] = tested on: human neonatal keratinocytes; assay: Melanosome Uptake Assay (CFDA-labeled melanosomes, flow cytometry); assay type: cell-based; conditions: for % Uptake: 0.0025 w/v % in keratinocyte medium, fraction of keratinocytes with detectable CFDA, vehicle control 36; for Rate of Melanosome Uptake Versus Control: 0.0025 w/v %, vehicle control = 100%
Protocol: Melanosome uptake was determined as follows. Carboxyfluorescein diacetate (“CFDA”) (available from Sigma, St. Louis, Mo.) labeled melanosomes were prepared by incubating CFDA dye in SKMEL-188 culture cells (available from Sloan Kettering Institute) for 2 days at 37° C. in a THERMO SCIENTIFIC FORMA brand CO2 incubator (available from Fisher Scientific, Waltham, Mass.). On day 3 of the test, melanosomes were isolated from SKMEL-188 cells by step density centrifugation with sucrose solutions layered with different densities, which is well known in the art. Melanosomes were taken from the 1.6 M-2.0 M sucrose layers. The isolated melanosomes were placed in each well of a 6-well plate along with human neonatal keratinocytes (available from Thermo) (approximately 50,000 keratinocytes/well). 2 ml of the appropriate medium (i.e., the test composition, the positive control or the vehicle control) was added to each of the wells to produce […] (i.e., 3 replicates of each of three composition tested). The test composition was made by adding nicotinamide riboside chloride powder (available from Chromadex, Irvine, Calif.) to EPILIFE brand keratinocyte medium to produce a solution of 0.0025 w/v % nicotinamide riboside. The positive control was made by adding niacinamide to EPILIFE brand keratinocyte medium to produce a solution of 0.0025 w/v % niacinamide. Unmodified keratinocyte medium was used as a vehicle control.
The resulting test plates were incubated for two days in EPILIFE brand keratinocyte medium. On day 6 of the test, the keratinocytes were detached from the plates using trypsin and fluorescent-label counted by flow cytometry using an LSRFortessa brand flow cytometer (available from Becton Dickinson, NJ). The percentage of cells that had fluorescence (from CFDA label) was used as a metric to determine melanosome uptake. Keratinocytes containing detectable levels of CFDA were counted as a fraction of all keratinocytes passing through the flow cytometer (indicated as % uptake in Table 2). A higher percentage corresponds to a higher level of melanosome uptake into the keratinocytes.

| Molecule | HMGB1 Released [1] [pg/mL] | effect on amount of HMGB1 protein released by keratinocytes exposed to UVB (in words) [1] | % Uptake [2] [%] | Rate of Melanosome Uptake Versus Control [2] [%] | effect on uptake of melanosomes from melanocytes into keratinocytes (in words) ([2]; compared to the vehicle control) |
| --- | --- | --- | --- | --- | --- |
| Nicotinamide riboside [NR] | 11.5 | reduces the amount of HMGB1 protein released from keratinocytes; also recorded: released less HMGB1 protein | 67 | 186 | – |
| NC(=O)c1cccnc1 [niacinamide, reference compound] | 17.8 | no significant effect | 26 | 72 | inhibit the rate of melanosome uptake |
